Assay results: EPA's ToxValDB 9.5 (doi:10.2903/j.efsa.2008.116r)

Key:
[1] = system: Apis mellifera; conditions: acute; duration: 48 hours; dermal; mortality
[2] = system: Lepomis macrochirus; conditions: acute; duration: 96 hours; mortality
[3] = system: Daphnia magna; conditions: chronic/long-term; duration: 21 days; reproduction
[4] = system: Canidae; conditions: oral, Dog Other, clinical chemistry
[5] = system: Rattus norvegicus
[6] = system: Coturnix coturnix; conditions: reproduction developmental
[7] = system: Tagia sp.; conditions: acute; duration: 14 days; mortality
[8] = system: Coturnix japonica; conditions: acute, oral, mortality
[9] = system: Mus musculus; conditions: acute; oral; mortality
[10] = system: Oncorhynchus mykiss; conditions: chronic/long-term; duration: 21 days; growth
[11] = system: Typhlodromus pyri; assay: LR50; higher = less toxic; conditions: not reported; mortality
[12] = system: Aphidius rhopalosiphi; assay: LR50; higher = less toxic; conditions: not reported; mortality

SMILES: COc1cc(OC)nc(NC(=O)NS(=O)(=O)N(C)S(C)(=O)=O)n1 [Amidosulfuron]
- LD50 [1]: > 100 µg/piece
- LC50 [2]: > 100 µg/mL
- NOEC [3]: 1 mg/L
- NOAEL ([4]; chronic, duration: 52 weeks): 144 mg/kg-day
- NOAEL ([4]; subchronic, duration: 3 months): 144 mg/kg-day
- NOEC ([5]; chronic, mortality): 400 mg/kg-day
- NOAEL ([5]; reproduction developmental, body weight): 22.5 mg/kg-day
- NOEC ([5]; reproduction developmental, organ weight): 22.5 mg/kg-day
- NOEC [6]: 1000 mg/kg-day
- LC50 [7]: > 1000 mg/kg
- LC50 ([8]; diet): > 1170 mg/kg-day
- LD50 [8]: > 2000 mg/kg-day
- LD50 [9]: ≥ 5000 mg/kg-day
- NOEC [10]: 6.41 mg/L
- LR50 [11]: > 45 g/ha
- LR50 [12]: > 45 g/ha
